From PubChem BioAssay (NCI)
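Compound exposure: 48 hours, 5 concentrations, 96-well plates. GI50 marks 50% less growth. Definition used: TGI = concentration required for complete inhibition of growth.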

Key:
Assay in all cases: DTP human tumour cell line panel, 48 h
UACC-257 melanoma = tested on: UACC-257 melanoma
SK-OV-3 ovarian = tested on: SK-OV-3 ovarian
MDA-MB-435 = tested on: MDA-MB-435
HL-60(TB) leukemia = tested on: HL-60(TB) leukemia
LOX IMVI melanoma = tested on: LOX IMVI melanoma
SNB-19 CNS = tested on: SNB-19 CNS
SK-MEL-2 melanoma = tested on: SK-MEL-2 melanoma
NCI-H23 lung = tested on: NCI-H23 lung
SF-295 CNS = tested on: SF-295 CNS
UACC-62 melanoma = tested on: UACC-62 melanoma

Compound | GI50 (UACC-257 melanoma) | TGI (UACC-257 melanoma) | GI50 (SK-OV-3 ovarian) | TGI (SK-OV-3 ovarian) | GI50 (MDA-MB-435) | TGI (MDA-MB-435) | GI50 (HL-60(TB) leukemia) | TGI (HL-60(TB) leukemia) | GI50 (LOX IMVI melanoma) | TGI (LOX IMVI melanoma) | GI50 (SNB-19 CNS) | TGI (SNB-19 CNS) | GI50 (SK-MEL-2 melanoma) | TGI (SK-MEL-2 melanoma) | GI50 (NCI-H23 lung) | TGI (NCI-H23 lung) | GI50 (SF-295 CNS) | TGI (SF-295 CNS) | GI50 (UACC-62 melanoma) | TGI (UACC-62 melanoma)
CC/C=C\C/C=C\C[C@H](O)C/C=C1/C(=O)C=C[C@@H]1C/C=C\CCCC(=O)O | 5350 nM | 19.2 µM | 16 µM | 34.7 µM | 3100 nM | 12 µM | 2930 nM | 10.1 µM | 1740 nM | 3.74 µM | 8.75 µM | 24.3 µM | 3.33 µM | 13.2 µM | 4090 nM | 17.1 µM | 7.86 µM | 22.4 µM | 1940 nM | 8.02 µM
CC(=O)OCC(=O)O[C@@H]1C[C@]2(C(C)C)O[C@@]1(C)[C@@H]1CC[C@@H](C)[C@H]1[C@@H]2OC(=O)/C=C/c1ccccc1 | 23600 nM | 87.4 µM | 24.5 µM | > 97.2 µM | 22000 nM | 59.7 µM | 15000 nM | 62 µM | 15500 nM | 32.7 µM | 30.2 µM | > 100 µM | 17.3 µM | 39.1 µM | 23700 nM | 99.1 µM | 17 µM | 43.9 µM | 14100 nM | 38.3 µM
Cn1nnnc1N/N=C/c1ccccc1 |  | > 10 µM |  | > 10 µM |  | > 10 µM |  | > 10 µM |  | > 10 µM |  | > 10 µM |  | > 10 µM |  | > 10 µM |  | > 10 µM |  | > 10 µM
CN1CCN(Cc2ccc(NC(=O)c3cncc(C#Cc4cncc5ncccc45)c3)cc2C(F)(F)F)CC1 | 2470 nM | 12.4 µM | 2.89 µM | 11.3 µM | 2030 nM | 12.9 µM | 303 nM | 2.02 µM | 794 nM | 2.11 µM | 10.5 µM | 22.3 µM | 0.542 µM | 2.48 µM | 1540 nM | 12.2 µM | 3.72 µM | 15.8 µM | 1670 nM | 9.52 µM
O=C(Nc1cccc(Oc2nnc(Cl)c3ccccc23)c1)Nc1ccc(Cl)c(C(F)(F)F)c1 | 952 nM | 3.37 µM | 2.66 µM | 6.7 µM | 791 nM | 3.24 µM | 372 nM | 6.06 µM | 680 nM | 2.82 µM | 1.26 µM | 4.9 µM | 0.698 µM | 3.24 µM | 907 nM | 4.36 µM | 0.657 µM | 3.7 µM |  | 
O=c1cc(N2CCNCC2)oc2c(-c3ccccc3)cccc12 | 13600 nM | 29.1 µM | 13.8 µM | 42.2 µM | 20900 nM | 98.8 µM | 29400 nM | > 100 µM | 31700 nM | > 100 µM | 34.5 µM | > 100 µM | 51.5 µM | > 100 µM | > 100000 nM | > 100 µM | 39.8 µM | > 100 µM | 25200 nM | > 100 µM
C/C1=C/C2=CC(C)C[C@@H]2C(=O)[C@]2(C)C(=O)CC(C)(C)[C@H]2CC1=O (some centres not stated) |  | > 50 µM |  | > 50 µM |  | > 50 µM |  | > 50 µM |  | > 50 µM |  | > 50 µM |  | > 50 µM |  | > 50 µM |  | > 50 µM |  | > 50 µM
N#Cc1ccc(N2Cc3ccccc3OC3=C2C(=O)c2c(O)ccc(O)c2C3=O)cc1 | 258 nM | 0.818 µM | 2.99 µM | 11.9 µM | 235 nM | 0.579 µM | 130 nM | 0.821 µM | 166 nM | 0.44 µM | 1.09 µM | 5.05 µM | 1.01 µM | 3.8 µM | 1320 nM | 4.2 µM | 2.12 µM | 6.96 µM | 240 nM | 0.667 µM
O=C(CN1CCN(c2ccc(Cl)cc2)CC1)N1CCN(c2nnc(-c3ccc(Cl)cc3)c(-c3ccc(Cl)cc3)n2)CC1 | > 100000 nM | > 100 µM | 33.9 µM | > 100 µM | 50900 nM | > 100 µM | > 100000 nM | > 100 µM | 14500 nM | 76.4 µM | 19.1 µM | 63.5 µM | 51.5 µM | > 100 µM | 48000 nM | > 100 µM | 20.9 µM | > 100 µM |  | 
C=CC[P+](c1ccccc1)(c1ccccc1)c1ccccc1 | 877 nM | 6.66 µM | 19.2 µM | > 100 µM | 2070 nM | 19.3 µM | 1580 nM | 6.03 µM | 6530 nM | > 100 µM | 4.1 µM | > 100 µM | 3.36 µM | 16.4 µM |  |  | 4.58 µM | 28.2 µM | 2690 nM | > 100 µM
O=S(=O)(O)c1ccc(-c2nnc(-c3ccccn3)nc2-c2ccc(S(=O)(=O)O)o2)o1 |  |  |  | > 100 µM |  | > 100 µM |  | > 100 µM |  | > 100 µM |  | > 100 µM |  | > 100 µM |  | > 100 µM |  | > 100 µM |  | > 100 µM
COc1cnc2c(c1)C(=O)c1c-2n(CCCN2CCC(O)CC2)c(=O)c2cc(F)ccc12 | 296 nM | 1.81 µM | 0.22 µM | 0.783 µM | 382 nM | 5.72 µM | 293 nM | 0.96 µM | 127 nM | 0.295 µM | 0.175 µM | 1.32 µM | 0.61 µM | 2.86 µM | 292 nM | 1.32 µM |  |  | 240 nM | 0.918 µM
CC(C)(C#N)c1cc(F)cc(C(=O)Nc2cc(Nc3ncccc3-c3ncnc4nc[nH]c34)ccc2F)c1 |  |  | > 10 µM | > 10 µM | 307 nM | > 10 µM | 123 nM | > 10 µM | 104 nM | 1.8 µM | 4.44 µM | > 10 µM | 0.144 µM | 1.17 µM | 501 nM | > 10 µM | 3.74 µM | > 10 µM | 84.1 nM | > 10 µM
CO/N=C(\C)c1cccc(Nc2cc(-c3ccccc3)nc3c(O)cccc23)c1 | 4070 nM | 22.6 µM | 8.62 µM | 34.5 µM | 1970 nM | 5.56 µM | 23000 nM | > 100 µM | 8560 nM | 24.3 µM |  |  | 5.76 µM | > 100 µM | 3920 nM | 24 µM | 2.17 µM | 5.55 µM | 6010 nM | 29.2 µM
